In PMC6814236, “Monitoring and characterizing soluble and membrane-bound ectonucleotidases CD73 and CD39” (PLoS ONE, 2019):

Tests used:
[1] = biological target: T1, Recombinant Human 5'-Nucleotidase/CD73 (Homo sapiens, UniProt P21589); assay: Enzyme activity of purified CD73 (AMP-Glo assay); type: biochemical
T1 construct: purchased R&D Systems
T1 sequence (P21589 27-574): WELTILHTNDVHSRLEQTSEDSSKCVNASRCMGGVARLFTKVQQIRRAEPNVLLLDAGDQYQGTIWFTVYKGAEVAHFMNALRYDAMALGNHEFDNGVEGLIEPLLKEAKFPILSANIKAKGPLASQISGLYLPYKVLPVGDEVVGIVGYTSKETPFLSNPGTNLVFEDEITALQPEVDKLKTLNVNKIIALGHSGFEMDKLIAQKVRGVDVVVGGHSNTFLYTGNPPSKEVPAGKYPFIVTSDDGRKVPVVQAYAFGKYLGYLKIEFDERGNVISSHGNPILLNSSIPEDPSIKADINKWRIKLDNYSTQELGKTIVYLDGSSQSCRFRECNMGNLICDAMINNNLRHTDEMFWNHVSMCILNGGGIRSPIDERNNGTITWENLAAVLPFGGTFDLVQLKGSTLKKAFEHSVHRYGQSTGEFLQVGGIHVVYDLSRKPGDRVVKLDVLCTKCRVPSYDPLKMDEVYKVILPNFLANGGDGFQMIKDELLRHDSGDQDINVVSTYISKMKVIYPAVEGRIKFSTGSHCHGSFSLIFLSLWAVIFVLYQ
Description: • Determination of enzyme activity of purified CD73. In a 25 μl reaction buffer (10mM HEPES, pH 7.4, 2mM MgCl2, 1mM CaCl2, and 0.1mg/ml BSA) containing enzyme and AMP substrate at 1μM to 10μM (96-well format), enzyme activity was performed at 23°C for specified time period and terminated by the addition of equal volume (25μl) of AMP-Glo™ Reagent I containing 50 μM (final concentration) of known CD73 inhibitor, such as AMPCP. Reactions were mixed well and incubated for additional 30 min at 23°C. This was followed by the addition of 50 μl of AMP Detection Solution (10μl of AMP-Glo™ Reagent II per ml of Kinase-Glo® One Solution) and incubated for additional 60 min at 23°C before reading luminescence.

CD39 (His-Tag Human) = biological target: T2, CD39 (His-Tag Human) (Homo sapiens, UniProt P49961); assay: Enzyme activity of purified CD39 with ATP or ADP as substrate; type: biochemical; conditions: 0.1ng CD39, 10 μM ATP or 10 μM ADP, 30min at 37°C
T2 construct: His; purchased R&D Systems
T2 sequence (P49961 1-510): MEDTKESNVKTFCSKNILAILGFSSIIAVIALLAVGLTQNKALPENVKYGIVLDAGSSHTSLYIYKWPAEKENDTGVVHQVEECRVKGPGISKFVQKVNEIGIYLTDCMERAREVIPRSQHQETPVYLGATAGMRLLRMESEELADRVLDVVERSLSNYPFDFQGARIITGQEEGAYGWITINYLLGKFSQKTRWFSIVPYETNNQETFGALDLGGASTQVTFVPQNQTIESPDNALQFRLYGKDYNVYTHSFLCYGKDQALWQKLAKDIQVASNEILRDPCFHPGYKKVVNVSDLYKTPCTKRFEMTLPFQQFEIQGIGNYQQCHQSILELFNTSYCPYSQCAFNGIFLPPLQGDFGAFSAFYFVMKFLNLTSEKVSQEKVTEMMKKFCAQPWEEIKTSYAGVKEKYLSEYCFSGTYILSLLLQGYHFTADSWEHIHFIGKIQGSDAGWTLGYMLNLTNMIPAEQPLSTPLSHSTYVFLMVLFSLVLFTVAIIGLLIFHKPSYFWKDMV
Description: • 2 Determination of enzyme activity of purified cytosolic cN-II. Activity of purified cN-II (Human cytosolic 5'-Nucleotidase) was determined using 25μl reaction buffer (50mM HEPES, pH 7.0, 100mM KCl, 20mM MgCl2, 5mM DTT, 2.5mM dATP, and 0.1mg/ml BSA) containing enzyme and AMP substrate at 10μM (96-well format). Reaction continued at 37°C for 60 minutes or for a certain time period and terminated by the addition of equal volume (25μl) of AMP-Glo™ Reagent I. Reactions were mixed well and incubated for additional 30 min at 23°C. This was followed by the addition of 50 μl of AMP Detection Solution (10μl of AMP-Glo™ Reagent II per ml of Kinase-Glo® One Solution) and incubated for additional 60 min at 23°C before reading luminescence. • 3 Determination of enzyme activity of purified CD39. […] When ATP is used as a substrate, an equal volume of Kinase-Glo® One Solution was added to CD39 reactions and incubated for 15 min before reading luminescence using a luminometer. When ADP is used as a substrate for CD39, after enzyme reaction completion, an equal volume of AMP Detection Solution with a known CD39 known inhibitor, such as POM 1 at 50μM final concentration was added. Reactions were mixed well and incubated for 60min before reading luminescence using luminometer. For enzyme dilution, reaction buffer can be used for dilution of enzymes.

| SMILES | Km ([1]; 0.01ng CD73 per reaction, varying AMP, 5min at 23°C) [µM] | inhibitory effect on purified CD39 (CD39 (His-Tag Human)) | effect on CD73 enzyme activity ([1]; purified CD73, 0.1ng, 1μM AMP, 5 min at 23°C (Fig 6)) |
| --- | --- | --- | --- |
| Nc1ncnc2c1ncn2[C@@H]1O[C@H](COP(=O)(O)O)[C@@H](O)[C@H]1O [AMP, adenosine monophosphate] | 2.53 |  |  |
| CCN(CC)c1ncnc2c1ncn2[C@@H]1O[C@H](COP(=O)(O)OP(=O)(O)C(Br)(Br)P(=O)(O)O)[C@@H](O)[C@H]1O.[Na+].[Na+].[Na+] [ARL 67156, 6-N,N-Diethyl-D-β,γ-dibromomethyleneATP trisodium salt] |  | inhibited | no effect |
